The values that follow come from US8481762B2, “Administration of compounds that increase glutathione levels in the melanocytes for the treatment of canities” (L'Oreal, priority 2004, dated 2013).

For this experiment, the system named is human melanocyte line WM35. The following applies: wild-type WM35 treated 24 h before H2O2 stress; compared with clone-2 line. On the procedure: To carry out the test, the cells are inoculated at the density of 2.5×10^4 cells/well and then treated with the compounds to be evaluated:
a—1:1 mixture containing 4 μg/ml of cafestol and kahweol;
After 24 h, the cells are exposed to a stress induced by H2O2.
The cell viability is measured 24 h after the stress with the aid of 2′,7′-dichlorodihydrofluoresceine diacetate (H2DCFDA; D399, Molecular Probes).

As to `Cc1c(-c2cnccn2)ssc1=S` [oltipraz], the “effect on sensitivity of the wild-type line to H2O2 induced stress” value is recorded as “limits the sensitivity of the cells to H2O2 induced stress”.
